According to patent publication US10040791B2, “Isoxazole derivative as mutant isocitrate dehydrogenase 1 inhibitor” (Daiichi Sankyo Company, Limited, priority 2014, dated 2018):
Counter-ions that a name gives are not always drawn.

Key:
[1] = system: HT-1080 cells expressing IDH1R132C; assay: 2-HG production inhibitory activity using HT1080 cell; type: cell-based, human; settings: Homo sapiens, HT-1080; 2-HG production, HT1080 cells; read-out: Test Example 3 IC50
Description: Then, 100 μL of growth medium B was added to each well, further 25 μL of a solution of each compound diluted to a predetermined concentration with growth medium B was added to each well, and the cells were incubated at 37° C. for 2 days under 5% CO2. […] Then, 150 μL of ultrapure water was further added to each well, and the mixture was stirred by pipetting and stored at −20° C.
The preserved solutions were thawed at room temperature.

[2] = system: HT1080 xenografted mice (IDH1R132C); assay: 2-HG production inhibitory activity using HT1080 xenografted mice; type: in vivo, mouse; settings: 2-HG production, HT1080 xenografted mice; for response vs control in vivo at 75 mg/kg: Mus musculus, HT-1080, po, 6 h, read-out: Test Example 5 Ratio (%)
Description: HT1080 xenografted mice having successfully engrafted tumors were given by oral gavage each compound at 75 mg/kg a total of three times twice a day. The compound was suspended in a vehicle solution at 7.5 mg/mL using a homogenizer. Then, the suspension was stored at −20° C., thawed immediately before the administration, and given to mice. A negative control group for the test was given a vehicle by oral gavage. The body weights of the mice were measured using an automatic balance for small animals. The dosing solution was administered at a dose of 10 mL/kg body weight.
6 hours after the final administration, each mouse was euthanized with carbon dioxide. A portion of a tumor was collected, and its weight was measured using an electronic balance. Then, the tumor was frozen on dry ice. To the frozen tumor, methanol was added in an amount of 14 times the tumor weight. The resulting tumor was homogenized with Beads shocker (Yasui Kikai Corp.) and then incubated for 15 minutes in a freezer at −20° C. After centrifugation at 15000 rpm at 4° C. for 15 minutes using a high-speed refrigerated microcentrifuge, 250 μL of methanol and 400 μL of ultrapure water were added to 150 μL of the obtained supernatant. The prepared samples were subjected to 2-HG measurement.

IDH1R132C = IDH1R132C (Homo sapiens (Human), UniProt O75874, R132C); assay: Inhibitory activity against IDH1R132C enzyme (NADPH detection, WST-8); type: biochemical; settings: 10 nM, residual NADPH detected with WST-8, read-out: Test Example 1 IDH1 R132C IC50
Sequence of IDH1R132C (O75874 whole entry R132C): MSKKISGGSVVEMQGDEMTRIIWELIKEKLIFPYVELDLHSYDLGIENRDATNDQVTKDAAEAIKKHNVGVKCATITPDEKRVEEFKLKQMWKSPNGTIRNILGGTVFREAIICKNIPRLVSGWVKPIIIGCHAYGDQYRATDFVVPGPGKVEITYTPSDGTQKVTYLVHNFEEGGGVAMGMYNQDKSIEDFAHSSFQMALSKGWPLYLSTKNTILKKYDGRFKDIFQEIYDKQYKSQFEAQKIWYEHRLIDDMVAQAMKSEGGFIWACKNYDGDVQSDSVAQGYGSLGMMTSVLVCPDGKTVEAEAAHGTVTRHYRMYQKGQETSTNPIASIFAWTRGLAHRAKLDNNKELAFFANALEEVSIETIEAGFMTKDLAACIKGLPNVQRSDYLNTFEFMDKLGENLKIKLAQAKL
Description: After transformation of Rosetta 2 (DE3) E. coli, the expression of the protein was induced with IPTG.
While NADPH-derived fluorescence was occasionally monitored, the reaction was terminated by the addition of 5 μL of 0.5 M EDTA before consumption of NADPH. 5 μL of WST-8 reagent (Dojindo Laboratories, #CK04) was further added and mixed therewith. 15 minutes later, the absorbance at 450 nm was measured using a plate reader (PerkinElmer, Inc., EnVision). The observed absorbance value reflects the amount of residual NADPH. From the absorbance data, the enzyme inhibitory activity of each compound at each concentration was calculated and analyzed using medical statistical analysis software GraphPad Prism to calculate an IC50 value.

Row | SMILES | IC50 [1] [nM] | response vs control in vivo at 75 mg/kg [2] [%] | IC50 (IDH1R132C) [nM] | Test Example 5 Ratio (%) [2] [%]
1 | Cc1cn(C(=O)c2c(-c3c(Cl)cc(Cl)cc3Cl)noc2C(F)(F)F)c2cccc(/C=C/C(=O)O)c12 [Example 61, (2E)-3-(3-Methyl-1-{[3-(2,4,6-trichlorophenyl)-5-(trifluoromethyl)-1,2-oxazol-4-yl]carbonyl}-1H-indol-4-yl)prop-2-enoic acid] | 337 | 63 | – | –
2 | CN(C)C1(c2onc(-c3c(Cl)cc(Cl)cc3Cl)c2C(=O)n2cc3c4c(cccc42)/C(=C/C(=O)O)CC3)CC1 [Example 92] | 9 | – | 80 | –
3 | C=CC(=O)N1CCCC(c2onc(-c3c(Cl)cc(Cl)cc3Cl)c2C(=O)n2ccc3c(/C=C/C(=O)O)cccc32)C1 (centres unmarked) [Example 96] | 290 | – | 422 | –
4 | C=CC(=O)N1CC(OC)(c2onc(-c3c(Cl)cc(Cl)cc3Cl)c2C(=O)n2ccc3c(/C=C/C(=O)O)cccc32)C1 [Example 97] | 162 | – | 164 | –
5 | C=CC(=O)N1CC(C)(c2onc(-c3c(Cl)cc(Cl)cc3Cl)c2C(=O)n2ccc3c(/C=C/C(=O)O)cccc32)C1 [Example 98] | 34 | – | 116 | –
6 | C#CC(=O)N1CC(c2onc(-c3c(Cl)cc(Cl)cc3Cl)c2C(=O)n2ccc3c(/C=C/C(=O)O)cccc32)C1 [Example 101] | 32 | – | 189 | –
7 | C=CC(=O)N1CCC(c2onc(-c3c(Cl)cccc3Cl)c2C(=O)n2ccc3c(/C=C/C(=O)O)cccc32)CC1 [Example 102] | 50 | – | 117 | –
8 | C=CC(=O)N1CCC(C)(c2onc(-c3c(Cl)cc(Cl)cc3Cl)c2C(=O)n2ccc3c(/C=C/C(=O)O)cccc32)CC1 [Example 111] | 10 | – | 188 | –
9 | C=CC(=O)N1CCC(O)(c2onc(-c3c(Cl)cc(Cl)cc3Cl)c2C(=O)n2cc(C)c3c(/C=C/C(=O)O)cccc32)CC1 [Example 123] | 13 | – | 149 | –
10 | C=CC(=O)N1CC2C(C1)C2c1onc(-c2c(Cl)cc(Cl)cc2Cl)c1C(=O)n1cc(C)c2c(/C=C/C(=O)O)cccc21 (centres unmarked) [Example 124] | 22 | – | 125 | –
11 | C=CC(=O)N1CCC(c2onc(-c3c(Cl)cc(Cl)cc3Cl)c2C(=O)n2cc(C)c3c(/C=C/C(=O)O)cccc32)(N(C)C)CC1 [Example 126] | 8 | – | 149 | –
12 | C=CC(=O)N1CCC(c2onc(-c3ccc(Cl)c(F)c3Cl)c2C(=O)n2cc(C)c3c(/C=C/C(=O)O)cccc32)CC1 [Example 129] | 10 | – | 182 | –
13 | C=CC(=O)N1CCC(c2noc(-c3c(Cl)cc(Cl)cc3Cl)c2C(=O)n2ccc3c(/C=C/C(=O)O)cccc32)CC1 [Example 132, (2E)-3-(1-{[3-(1-Acryloylpiperidin-4-yl)-5-(2,4,6-trichlorophenyl)-1,2-oxazol-4-yl]carbonyl}-1H-indol-4-yl)prop-2-enoic acid] | 28 | – | 279 | –
14 | CN(C)c1onc(-c2c(Cl)cccc2Cl)c1C(=O)n1ccc2c(/C=C/C(=O)O)cccc21 [Example 133, (2E)-3-(1-{[3-(2,6-Dichlorophenyl)-5-(dimethylamino)-1,2-oxazol-4-yl]carbonyl}-1H-indol-4-yl)prop-2-enoic acid] | 390 | – | 93 | –
15 | CCN(CC)c1onc(-c2c(Cl)cccc2Cl)c1C(=O)n1ccc2c(/C=C/C(=O)O)cccc21 [Example 134, (2E)-3-(1-{[3-(2,6-Dichlorophenyl)-5-(diethylamino)-1,2-oxazol-4-yl]carbonyl}-1H-indol-4-yl)prop-2-enoic acid] | 347 | – | 143 | –
16 | O=C(O)/C=C/c1cccc2c1ccn2C(=O)c1c(-c2c(Cl)cccc2Cl)noc1N1CCCC1 [Example 135, (2E)-3-(1-{[3-(2,6-Dichlorophenyl)-5-(pyrrolidin-1-yl)-1,2-oxazol-4-yl]carbonyl}-1H-indol-4-yl)prop-2-enoic acid] | 376 | – | 122 | –
17 | O=C(O)/C=C/c1cccc2c1ccn2C(=O)c1c(-c2c(Cl)cccc2Cl)noc1N1CCOCC1 [Example 136, (2E)-3-(1-{[3-(2,6-Dichlorophenyl)-5-(morpholin-4-yl)-1,2-oxazol-4-yl]carbonyl}-1H-indol-4-yl)prop-2-enoic acid] | 335 | – | 140 | –
18 | C[C@@H]1CCC[C@H](C)N1c1onc(-c2c(Cl)cccc2Cl)c1C(=O)n1ccc2c(/C=C/C(=O)O)cccc21 [Example 137, (2E)-3-(1-{[3-(2,6-Dichlorophenyl)-5-(cis-2,6-dimethylpiperidin-1-yl)-1,2-oxazol-4-yl]carbonyl}-1H-indol-4-yl)prop-2-enoic acid] | 299 | – | 189 | –
19 | CN(C)c1onc(-c2c(Cl)cc(Cl)cc2Cl)c1C(=O)n1ccc2c(/C=C/C(=O)O)cccc21 [Example 138] | 288 | – | 88 | –
20 | C=CC(=O)N1CCN(c2onc(-c3c(Cl)cccc3Cl)c2C(=O)n2ccc3c(/C=C/C(=O)O)cccc32)C(C)(C)C1 [Example 153, (2E)-3-(1-{[5-(4-Acryloyl-2,2-dimethylpiperazin-1-yl)-3-(2,6-dichlorophenyl)-1,2-oxazol-4-yl]carbonyl}-1H-indol-4-yl)prop-2-enoic acid] | 166 | – | 130 | –
21 | C=CC(=O)N1CC2(CC2)N(c2onc(-c3c(F)cccc3Cl)c2C(=O)n2cc(C)c3c(/C=C/C(=O)O)cccc32)C[C@H]1C [Example 162, (2E)-3-[1-({5-[(6R)7-Acryloyl-6-methyl-4,7-diazaspiro[2.5]oct-4-yl]-3-(2-chloro-6-fluorophenyl)-1,2-oxazol-4-yl}carbonyl)-3-methyl-1H-indol-4-yl]prop-2-enoic acid] | 253 | – | 95 | –
22 | Cn1cc(C(=O)c2c(-c3c(Cl)cc(Cl)cc3Cl)noc2C2(C)CC2)c2cccc(/C=C/C(=O)O)c21 [Example 165] | 186 | – | 81 | –
23 | Cc1cn(C(=O)c2c(-c3c(Cl)cc(Cl)cc3Cl)noc2C(C)(C)F)c2cccc(/C=C/C(=O)O)c12 [Example 168, (2E)-3-(1-{[5-(2-Fluoropropan-2-yl)-3-(2,4,6-trichlorophenyl)-1,2-oxazol-4-yl]carbonyl}-3-methyl-1H-indol-4-yl)prop-2-enoic acid tert-butylamine salt] | – | 13 | – | –
24 | Cc1cn(C(=O)c2c(-c3c(F)cc(Cl)cc3Cl)noc2C(C)(C)F)c2cccc(/C=C/C(=O)O)c12 [Example 169, (2E)-3-(1-{[3-(2,4-Dichloro-6-fluorophenyl)-5-(2-fluoropropan-2-yl)-1,2-oxazol-4-yl]carbonyl}-3-methyl-1H-indol-4-yl)prop-2-enoic acid tert-butylamine salt] | – | – | – | 17
25 | Cc1cn(C(=O)c2c(-c3c(F)cc(Cl)cc3F)noc2C(C)(C)F)c2cccc(/C=C/C(=O)O)c12 [Example 170, (2E)-3-(1-{[3-(4-Chloro-2,6-difluorophenyl)-5-(2-fluoropropan-2-yl)-1,2-oxazol-4-yl]carbonyl}-3-methyl-1H-indol-4-yl)prop-2-enoic acid tert-butylamine salt] | – | – | – | 35
26 | Cc1cc(Cl)cc(C)c1-c1noc(C(C)(C)F)c1C(=O)n1cc(C)c2c(/C=C/C(=O)O)cccc21 [Example 171, (2E)-3-(1-{[3-(4-Chloro-2,6-dimethylphenyl)-5-(2-fluoropropan-2-yl)-1,2-oxazol-4-yl]carbonyl}-3-methyl-1H-indol-4-yl)prop-2-enoic acid tert-butylamine salt] | – | – | – | 22
27 | Cc1cc(Cl)cc(Cl)c1-c1noc(C(C)(C)F)c1C(=O)n1cc(C)c2c(/C=C/C(=O)O)cccc21 [Example 172, (2E)-3-(1-{[3-(2,4-Dichloro-6-methylphenyl)-5-(2-fluoropropan-2-yl)-1,2-oxazol-4-yl]carbonyl}-3-methyl-1H-indol-4-yl)prop-2-enoic acid tert-butylamine salt] | – | – | – | 8
28 | Cc1cn(C(=O)c2c(-c3ccc(Cl)cc3Cl)noc2C(C)(C)F)c2cccc(/C=C/C(=O)O)c12 [Example 173, (2E)-3-(1-{[3-(2,4-Dichlorophenyl)-5-(2-fluoropropan-2-yl)-1,2-oxazol-4-yl]carbonyl}-3-methyl-1H-indol-4-yl)prop-2-enoic acid tert-butylamine salt] | – | – | – | 2
